Earlier results in patent US20120201886A1, “Coated Extended Release Pharmaceutical Compositions Containing Paliperidone” (MICRO LABS LIMITED, priority 2010, published 2012).

solubility in 0.1 N hydrochloric acid (0.1 N hydrochloric acid): soluble
solubility in methanol (methanol): soluble
solubility in methylene chloride (methylene chloride): freely soluble
solubility in water (water): practically insoluble
Compound: Cc1nc2n(c(=O)c1CCN1CCC(c3noc4cc(F)ccc34)CC1)CCCC2O (racemic) [Paliperidone, (RS)-3-[2-[4-(6-fluorobenzo[d]isoxazol-3-yl)-1-piperidyl]ethyl]-7-hydroxy-4-methyl-1,5-diazabicyclo[4.4.0]deca-3,5-dien-2-one]
